Measurements taken from patent US12331040B2 (Karyopharm Therapeutics Inc., priority 2013, dated 2025).
Like-named read-outs stand apart in the source and are kept apart here.

How the values were obtained:
Test in all cases: MTT cell proliferation assay
Assay type in all cases: cell-based
3T3 cells = settings: Mus musculus, NIH3T3, approximately 64-72 hours incubation
Outline: (§1)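 Cytotoxicity was measured by MTT: OD490 of the solubilized formazan after roughly 4 h with MTT reagent, reported as mean percent inhibition relative to the negative control. Test compounds covered eight concentrations between 1 nM and 30 μM, added to 5,000–10,000 cells per well that had attached overnight.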

MS751 cells = settings: Homo sapiens, MS751, MS751 cells, approximately 64-72 hours incubation
Outline: as §1

Z138 cells = settings: Homo sapiens, Z-138, Z138 cells, approximately 64-72 hours incubation
Outline: as §1

[1] = read-out: MTT Assay IC50, MS-751
[2] = read-out: MTT Assay IC50, Z-138
[3] = read-out: MTT Assay IC50 MS-751

SMILES | IC50 (3T3 cells; read-out: MTT Assay IC50, 3T3) | IC50 (MS751 cells; [1]) | IC50 (Z138 cells; [2]) | IC50 (3T3 cells; read-out: MTT Assay IC50 3T3) | IC50 (MS751 cells; [3]) | IC50 (Z138 cells; read-out: MTT Assay IC50 Z-138)
Nc1ccc(/C=C/C(=O)NCc2cc3cc(-c4ccc(C(=O)N5CCC(F)(F)CC5)cc4F)cc(-c4ccc(C(F)(F)F)cc4)c3o2)cn1 [Compound 749, (E)-3-(6-aminopyridin-3-yl)-N-((5-(4-(4,4-difluoropiperidine-1-carbonyl)-2-fluorophenyl)-7-(4-(trifluoromethyl)phenyl)benzofuran-2-yl)methyl)acrylamide] | > 10 µM | > 10 µM | 0.1 to 5 µM | – | – | –
Nc1ccc(/C=C/C(=O)NCc2cc3cc(-c4ccc(C(=O)N5CCNCC5)cn4)cc(C(F)(F)F)c3o2)cn1 [Compound 577, (E)-3-(6-aminopyridin-3-yl)-N-((5-(5-(piperazine-1-carbonyl)pyridin-2-yl)-7-(trifluoromethyl)benzofuran-2-yl)methyl)acrylamide] | – | – | – | > 10 µM | < 0.1 µM | < 0.1 µM
Nc1ccc(/C=C/C(=O)NCc2cc3cccc(-c4ccc(C(=O)N5CCOCC5)cc4)c3o2)cn1 [Compound 559, (E)-3-(6-aminopyridin-3-yl)-N-((7-(4-(morpholine-4-carbonyl)phenyl)benzofuran-2-yl)methyl)acrylamide] | – | – | – | 0.1 to 5 µM | < 0.1 µM | < 0.1 µM
Nc1ccc(/C=C/C(=O)NCc2cc3cc(-c4ccc(Oc5ccc(F)cc5)cn4)cc(-c4ccc(F)cc4)c3o2)cn1 [Compound 745, (E)-3-(6-aminopyridin-3-yl)-N-((5-(5-(4-fluorophenoxy)pyridin-2-yl)-7-(4-fluorophenyl)benzofuran-2-yl)methyl)acrylamide] | > 10 µM | 0.1 to 5 µM | 0.1 to 5 µM | – | – | –
CC(c1ccc(-c2cc(-c3ccc(F)cc3)c3oc(CNC(=O)/C=C/c4ccc(N)nc4)cc3c2)cc1)N1CCC(F)(F)CC1 (stereo not drawn) [Compound 760, (E)-3-(6-aminopyridin-3-yl)-N-((5-(4-(1-(4,4-difluoropiperidin-1-yl)ethyl)phenyl)-7-(4-fluorophenyl)benzofuran-2-yl)methyl)acrylamide] | > 10 µM | 0.1 to 5 µM | 0.1 to 5 µM | – | – | –
Nc1ccc(/C=C/C(=O)NCc2cc3cc(-c4cc(F)c(C(=O)N5CCOCC5)cc4F)cc(Cl)c3o2)cn1 [Compound 547, (E)-3-(6-aminopyridin-3-yl)-N-((7-chloro-5-(2,5-difluoro-4-(morpholine-4-carbonyl)phenyl)benzofuran-2-yl)methyl)acrylamide] | – | – | – | > 10 µM | 0.1 to 5 µM | 0.1 to 5 µM
Nc1ccc(/C=C/C(=O)NCc2cc3cc(-c4ccc(C(=O)N5CCC(O)(C(F)(F)F)C5)cc4)cc(C(F)(F)F)c3o2)cn1 (stereo not drawn) [Compound 606, (E)-3-(6-aminopyridin-3-yl)-N-((5-(4-(3-hydroxy-3-(trifluoromethyl)pyrrolidine-1-carbonyl)phenyl)-7-(trifluoromethyl)benzofuran-2-yl)methyl)acrylamide] | – | – | – | > 10 µM | 0.1 to 5 µM | 0.1 to 5 µM
Nc1ccc(/C=C/C(=O)NCc2cc3cc(-c4ccc(C(=O)N5CC6(C5)CC(F)(F)C6)cn4)cc(C(F)(F)F)c3o2)cn1 [Compound 661, (E)-3-(6-aminopyridin-3-yl)-N-((5-(5-(6,6-difluoro-2-azaspiro[3.3]heptane-2-carbonyl)pyridin-2-yl)-7-(trifluoromethyl)benzofuran-2-yl)methyl)acrylamide] | > 10 µM | 0.1 to 5 µM | 0.1 to 5 µM | – | – | –
Nc1ccc(/C=C/C(=O)NCc2cc3cc(-c4ccc(C(=O)N5CCOCC5)cn4)cc(Cl)c3o2)cn1 [Compound 560, (E)-3-(6-aminopyridin-3-yl)-N-((7-chloro-5-(5-(morpholine-4-carbonyl)pyridin-2-yl)benzofuran-2-yl)methyl)acrylamide] | – | – | – | > 10 µM | 0.1 to 5 µM | 0.1 to 5 µM
Nc1ccc(/C=C/C(=O)NCc2cc3cc(-c4ccc(S(=O)(=O)N5CCC(F)(F)CC5)cc4)cc(C(F)(F)F)c3o2)cn1 [Compound 679, (E)-3-(6-aminopyridin-3-yl)-N-((5-(4-((4,4-difluoropiperidin-1-yl)sulfonyl)phenyl)-7-(trifluoromethyl)benzofuran-2-yl)methyl)acrylamide] | 0.1 to 5 µM | 0.1 to 5 µM | 0.1 to 5 µM | – | – | –
COc1cc(-c2ccc(C(=O)N3CCC(F)(F)CC3)cn2)cc2cc(CNC(=O)/C=C/c3ccc(N)nc3)oc12 [Compound 651, (E)-3-(6-aminopyridin-3-yl)-N-((5-(5-(4,4-difluoropiperidine-1-carbonyl)pyridin-2-yl)-7-methoxybenzofuran-2-yl)methyl)acrylamide] | – | – | – | > 10 µM | < 0.1 µM | < 0.1 µM
Nc1ccc(/C=C/C(=O)NCc2cc3cc(-c4ccc(C(=O)NNc5cnccn5)cc4)cc(Cl)c3o2)cn1 [Compound 505, (E)-3-(6-aminopyridin-3-yl)-N-((7-chloro-5-(4-(2-(pyrazin-2-yl)hydrazine-1-carbonyl)phenyl)benzofuran-2-yl)methyl)acrylamide] | – | – | – | > 10 µM | 0.1 to 5 µM | 0.1 to 5 µM
Nc1ccc(/C=C/C(=O)NCc2cc3cc(-c4ccc(C(=O)N5CCC(F)(F)CC5)cc4F)cc(C(F)(F)F)c3o2)cn1 [Compound 683, (E)-3-(6-aminopyridin-3-yl)-N-((5-(4-(4,4-difluoropiperidine-1-carbonyl)-2-fluorophenyl)-7-(trifluoromethyl)benzofuran-2-yl)methyl)acrylamide] | > 10 µM | 0.1 to 5 µM | 0.1 to 5 µM | – | – | –
Nc1ccc(/C=C/C(=O)NCc2cc3cc(-c4ccc(C(=O)N5CCC(F)(F)CC5)cc4F)cc(-c4cccc(F)c4)c3o2)cn1 [Compound 755, (E)-3-(6-aminopyridin-3-yl)-N-((5-(4-(4,4-difluoropiperidine-1-carbonyl)-2-fluorophenyl)-7-(3-fluorophenyl)benzofuran-2-yl)methyl)acrylamide] | 0.1 to 5 µM | 0.1 to 5 µM | < 0.1 µM | – | – | –
O=C(/C=C/c1cccnc1)NCc1cc2cc(-c3ccc(C(=O)N4CCC(F)(F)CC4)cc3)cc(C(F)(F)F)c2o1 [Compound 682, (E)-N-((5-(4-(4,4-difluoropiperidine-1-carbonyl)phenyl)-7-(trifluoromethyl)benzofuran-2-yl)methyl)-3-(pyridin-3-yl)acrylamide] | 0.1 to 5 µM | 0.1 to 5 µM | 0.1 to 5 µM | – | – | –
Nc1ccc(/C=C/C(=O)NCc2cc3cc(-c4ncc(C(=O)N5CCC(F)(F)CC5)cn4)cc(C(F)(F)F)c3o2)cn1 [Compound 652, (E)-3-(6-aminopyridin-3-yl)-N-((5-(5-(4,4-difluoropiperidine-1-carbonyl)pyrimidin-2-yl)-7-(trifluoromethyl)benzofuran-2-yl)methyl)acrylamide] | – | – | – | > 10 µM | 0.1 to 5 µM | 0.1 to 5 µM
CC1(O)CCN(C(=O)c2ccc(-c3cc(Cl)c4oc(CNC(=O)/C=C/c5ccc(N)nc5)cc4c3)cc2)CC1 [Compound 602, (E)-3-(6-aminopyridin-3-yl)-N-((7-chloro-5-(4-(4-hydroxy-4-methylpiperidine-1-carbonyl)phenyl)benzofuran-2-yl)methyl)acrylamide] | – | – | – | > 10 µM | 0.1 to 5 µM | 0.1 to 5 µM
O=C(/C=C/c1cccnc1)NCc1cc2cc(-c3ccc(C(=O)N4CCC(F)(F)CC4)cn3)cc(-c3cccc(F)c3)c2o1 [Compound 720, (E)-N-((5-(5-(4,4-difluoropiperidine-1-carbonyl)pyridin-2-yl)-7-(3-fluorophenyl)benzofuran-2-yl)methyl)-3-(pyridin-3-yl)acrylamide] | < 0.1 µM | < 0.1 µM | < 0.1 µM | – | – | –
C[C@@H]1COCCN1C(=O)c1ccc(-c2cc(Cl)c3oc(CNC(=O)/C=C/c4ccc(N)nc4)cc3c2)cc1 [Compound 516, (R,E)-3-(6-aminopyridin-3-yl)-N-((7-chloro-5-(4-(3-methylmorpholine-4-carbonyl)phenyl)benzofuran-2-yl)methyl)acrylamide] | – | – | – | > 10 µM | 0.1 to 5 µM | 0.1 to 5 µM
Nc1ccc(/C=C/C(=O)NCc2cc3cc(-c4ccc(S(=O)(=O)N5CC(F)(F)C5)cc4)cc(Cl)c3o2)cn1 [Compound 642, (E)-3-(6-aminopyridin-3-yl)-N-((7-chloro-5-(4-(3,3-difluoroazetidin-1-ylsulfonyl)phenyl)benzofuran-2-yl)methyl)acrylamide] | – | – | – | > 10 µM | 0.1 to 5 µM | 0.1 to 5 µM
Nc1ccc(/C=C/C(=O)NCc2cc3cc(-c4ccc(C(=O)N5CCOCC5)cc4)cc(C(F)F)c3o2)cn1 [Compound 557, (E)-3-(6-aminopyridin-3-yl)-N-((7-(difluoromethyl)-5-(4-(morpholine-4-carbonyl)phenyl)benzofuran-2-yl)methyl)acrylamide] | – | – | – | > 10 µM | 0.1 to 5 µM | 0.1 to 5 µM
Nc1ccc(/C=C/C(=O)NCc2cc3cc(-c4ccc(NC(=O)N5CCOCC5)cc4)cc(Cl)c3o2)cn1 [Compound 582, (E)-N-(4-(2-((3-(6-aminopyridin-3-yl)acrylamido)methyl)-7-chlorobenzofuran-5-yl)phenyl)morpholine-4-carboxamide] | – | – | – | > 10 µM | 5 to 10 µM | 5 to 10 µM
Nc1ccc(/C=C/C(=O)NCc2cc3cc(-c4ncc(C(=O)N5CCOCC5)cn4)cc(Cl)c3o2)cn1 [Compound 583, (E)-3-(6-aminopyridin-3-yl)-N-((7-chloro-5-(5-(morpholine-4-carbonyl)pyrimidin-2-yl)benzofuran-2-yl)methyl)acrylamide] | – | – | – | > 10 µM | 0.1 to 5 µM | 0.1 to 5 µM
